Test results taken from ChEMBL document CHEMBL5247669, “Synthesis, modeling, and biological evaluation of anti-tubulin indole-substituted furanones” (Bioorg Med Chem Lett, 2023).
The source made the active and inactive calls. The calls are words filed in the database; no cut-off is given here.

Tests used:
U-937 = assay: Anticancer activity against human U-937 cells assessed as reduction in cell viability by MTT assay; format: functional, cell-based
MCF7 = assay: Growth inhibition of human MCF7 cells by MTT assay; format: functional
MDA-MB-231 = assay: Growth inhibition of human MDA-MB-231 cells by MTT assay; format: functional
Hs-578T = assay: Growth inhibition of human Hs-578T cells by MTT assay; format: functional
BT-549 = assay: Growth inhibition of human BT-549 cells by MTT assay; format: functional
T47D = assay: Growth inhibition of human T47D cells by MTT assay; format: functional
MDA-MB-468 = assay: Growth inhibition of human MDA-MB-468 cells by MTT assay; format: functional
COLO 205 = assay: Growth inhibition of human COLO 205 cells by MTT assay; format: functional
HCC 2998 = assay: Growth inhibition of human HCC 2998 cells by MTT assay; format: functional
HCT-116 = assay: Growth inhibition of human HCT-116 cells by MTT assay; format: functional
HCT-15 = assay: Growth inhibition of human HCT-15 cells by MTT assay; format: functional
HT-29 = assay: Growth inhibition of human HT-29 cells by MTT assay; format: functional
KM12 = assay: Growth inhibition of human KM12 cells by MTT assay; format: functional
SW-620 = assay: Growth inhibition of human SW-620 cells by MTT assay; format: functional
SF-268 = assay: Growth inhibition of human SF-268 cells by MTT assay; format: functional
SF-295 = assay: Growth inhibition of human SF-295 cells by MTT assay; format: functional
SF-539 = assay: Growth inhibition of human SF-539 cells by MTT assay; format: functional
SNB-19 = assay: Growth inhibition of human SNB-19 cells by MTT assay; format: functional
SNB-75 = assay: Growth inhibition of human SNB-75 cells by MTT assay; format: functional
U-251 = assay: Growth inhibition of human U-251 cells by MTT assay; format: functional
HL-60 = assay: Growth inhibition of human HL-60 cells by MTT assay; format: functional
K562 = assay: Growth inhibition of human K562 cells by MTT assay; format: functional
MOLT-4 = assay: Growth inhibition of human MOLT-4 cells by MTT assay; format: functional
SR = assay: Growth inhibition of human SR cells by MTT assay; format: functional
CCRF-CEM = assay: Growth inhibition of human CCRF-CEM cells by MTT assay; format: functional
RPMI-8226 = assay: Growth inhibition of human RPMI-8226 cells by MTT assay; format: functional
LOX IMVI = assay: Growth inhibition of human LOX IMVI cells by MTT assay; format: functional
Malme-3M = assay: Growth inhibition of human Malme-3M cells by MTT assay; format: functional
M14 = assay: Growth inhibition of human M14 cells by MTT assay; format: functional
MDA-MB-435 = assay: Growth inhibition of human MDA-MB-435 cells by MTT assay; format: functional
SK-MEL-2 = assay: Growth inhibition of human SK-MEL-2 cells by MTT assay; format: functional
SK-MEL-28 = assay: Growth inhibition of human SK-MEL-28 cells by MTT assay; format: functional
SK-MEL-5 = assay: Growth inhibition of human SK-MEL-5 cells by MTT assay; format: functional
UACC-257 = assay: Growth inhibition of human UACC-257 cells by MTT assay; format: functional
UACC-62 = assay: Growth inhibition of human UACC-62 cells by MTT assay; format: functional
A549 = assay: Growth inhibition of human A549 cells by MTT assay; format: functional
EKVX = assay: Growth inhibition of human EKVX cells by MTT assay; format: functional
HOP-62 = assay: Growth inhibition of human HOP-62 cells by MTT assay; format: functional
HOP-92 = assay: Growth inhibition of human HOP-92 cells by MTT assay; format: functional
NCI-H226 = assay: Growth inhibition of human NCI-H226 cells by MTT assay; format: functional
NCI-H23 = assay: Growth inhibition of human NCI-H23 cells by MTT assay; format: functional
NCI-H322M = assay: Growth inhibition of human NCI-H322M cells by MTT assay; format: functional
NCI-H460 = assay: Growth inhibition of human NCI-H460 cells by MTT assay; format: functional
NCI-H522 = assay: Growth inhibition of human NCI-H522 cells by MTT assay; format: functional
IGROV-1 = assay: Growth inhibition of human IGROV-1 cells by MTT assay; format: functional, cell-based
OVCAR-3 = assay: Growth inhibition of human OVCAR-3 cells by MTT assay; format: functional
OVCAR-4 = assay: Growth inhibition of human OVCAR-4 cells by MTT assay; format: functional
OVCAR-5 = assay: Growth inhibition of human OVCAR-5 cells by MTT assay; format: functional
OVCAR-8 = assay: Growth inhibition of human OVCAR-8 cells by MTT assay; format: functional
NCI/ADR-RES = assay: Growth inhibition of human NCI/ADR-RES cells by MTT assay; format: functional
SK-OV-3 = assay: Growth inhibition of human SK-OV-3 cells by MTT assay; format: functional
DU-145 = assay: Growth inhibition of human DU-145 cells by MTT assay; format: functional
PC-3 = assay: Growth inhibition of human PC-3 cells by MTT assay; format: functional
786-0 = assay: Growth inhibition of human 786-0 cells by MTT assay; format: functional
A498 = assay: Growth inhibition of human A498 cells by MTT assay; format: functional
ACHN = assay: Growth inhibition of human ACHN cells by MTT assay; format: functional
CAKI-1 = assay: Growth inhibition of human CAKI-1 cells by MTT assay; format: functional
RXF 393 = assay: Growth inhibition of human RXF 393 cells by MTT assay; format: functional
SN12C = assay: Growth inhibition of human SN12C cells by MTT assay; format: functional
TK-10 = assay: Growth inhibition of human TK-10 cells by MTT assay; format: functional
UO-31 = assay: Growth inhibition of human UO-31 cells by MTT assay; format: functional
Tubulin (Homo sapiens) = Tubulin (Homo sapiens) (UniProt P68371+Q9H4B7+P0DPH7+P68366+Q13509+Q71U36+P04350+Q3ZCM7+P07437+P68363+Q9BQE3+Q6PEY2+Q13885+Q9BVA1+Q9BUF5); assay: Inhibition of tubulin polymerization (unknown origin) at 10 uM; format: protein-complex assay

## COc1ccccc1C1=C(c2cn(C)c3ccccc23)COC1=O
U-937
  EC50: > 10 µM

## COc1ccc(OC)c(C2=C(c3cn(C)c4ccccc34)COC2=O)c1
U-937
  EC50: 3.2 µM

## Cn1cc(C2=C(c3ccccc3)C(=O)OC2)c2ccccc21
U-937
  EC50: > 10 µM

## COc1cccc(C2=C(c3cn(C)c4ccccc34)COC2=O)c1
U-937
  EC50: > 10 µM

## COc1ccc(C2=C(c3cn(C)c4ccccc34)COC2=O)cc1OC
U-937
  EC50: > 10 µM

## Cc1cccc(C2=C(c3cn(C)c4ccccc34)COC2=O)c1
U-937
  EC50: > 10 µM

## Cc1ccc(C2=C(c3cn(C)c4ccccc34)COC2=O)cc1
U-937
  EC50: > 10 µM

## COc1cc(C2=C(c3cn(C)c4ccccc34)COC2=O)cc(OC)c1OC
U-937
  EC50: 0.6 µM
MCF7
  GI50: 28 nM
MDA-MB-231
  GI50: 339 nM
Hs-578T
  GI50: 158 nM
BT-549
  GI50: 62 nM
T47D
  GI50: 60 nM
MDA-MB-468
  GI50: 32 nM
COLO 205
  GI50: 65 nM
HCC 2998
  GI50: 219 nM
HCT-116
  GI50: 40 nM
HCT-15
  GI50: 43 nM
HT-29
  GI50: 38 nM
KM12
  GI50: 65 nM
SW-620
  GI50: 45 nM
SF-268
  GI50: 813 nM
SF-295
  GI50: 40 nM
SF-539
  GI50: 105 nM
SNB-19
  GI50: 158 nM
SNB-75
  GI50: 44 nM
U-251
  GI50: 72 nM
HL-60
  GI50: 43 nM
K562
  GI50: 37 nM
MOLT-4
  GI50: 55 nM
SR
  GI50: 22 nM
CCRF-CEM
  GI50: 59 nM
RPMI-8226
  GI50: 110 nM
LOX IMVI
  GI50: 66 nM
Malme-3M
  GI50: 195 nM
M14
  GI50: 37 nM
MDA-MB-435
  GI50: 25 nM
SK-MEL-2
  GI50: 229 nM
SK-MEL-28
  GI50: 427 nM
SK-MEL-5
  GI50: 78 nM
UACC-257
  GI50: 1620 nM
UACC-62
  GI50: 54 nM
A549
  GI50: 100 nM
EKVX
  GI50: 151 nM
HOP-62
  GI50: 123 nM
HOP-92
  GI50: 251 nM
NCI-H226
  GI50: 692 nM
NCI-H23
  GI50: 234 nM
NCI-H322M
  GI50: 407 nM
NCI-H460
  GI50: 54 nM
NCI-H522
  GI50: 49 nM
IGROV-1
  IC50: 76 nM
OVCAR-3
  GI50: 36 nM
OVCAR-4
  GI50: 1260 nM
OVCAR-5
  GI50: 479 nM
OVCAR-8
  GI50: 339 nM
NCI/ADR-RES
  GI50: 47 nM
SK-OV-3
  GI50: 269 nM
DU-145
  GI50: 209 nM
PC-3
  GI50: 102 nM
786-0
  GI50: 316 nM
A498
  GI50: 17 nM
ACHN
  GI50: 537 nM
CAKI-1
  GI50: 52 nM
RXF 393
  GI50: 132 nM
SN12C
  GI50: 282 nM
TK-10
  GI50: 933 nM
UO-31
  GI50: 186 nM
Tubulin (Homo sapiens)
  inhibition: Active

## COc1ccc(C2=C(c3cn(C)c4ccccc34)COC2=O)cc1
U-937
  EC50: > 10 µM
